Reference: PubChem BioAssay (NCI)
Where “and” joins values, the source holds several entries; their conditions need not be identical. Identical values can stand only once.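 48-hour exposure; five concentrations; linearly interpolated endpoints. The concentration for 50% growth inhibition is given as GI50. TGI marks complete inhibition of growth.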

Assays:
Assay in all cases: NCI-60 cell line screen, 48 h
HS 578T breast = system: HS 578T breast
BT-549 breast = system: BT-549 breast
NCI/ADR-RES ovarian = system: NCI/ADR-RES ovarian
SNB-78 CNS = system: SNB-78 CNS
LXFL 529 NSCLC = system: LXFL 529 NSCLC
XF 498 CNS = system: XF 498 CNS
MDA-N = system: MDA-N
HOP-18 NSCLC = system: HOP-18 NSCLC

Row | Structure (SMILES) | GI50 (HS 578T breast) [µM] | TGI (HS 578T breast) [µM] | GI50 (BT-549 breast) [µM] | TGI (BT-549 breast) | GI50 (NCI/ADR-RES ovarian) | TGI (NCI/ADR-RES ovarian) | TGI (LXFL 529 NSCLC) [µM] | further results
1 | COC(=O)[C@]12CC[C@@H](C)[C@H](C)[C@@H]1C1=CC[C@@H]3[C@@]4(C)C(C=O)=C[C@@](C)(COS(C)(=O)=O)C4=CC[C@@]3(C)[C@]1(C)CC2 | 0.234 | 0.711 | 0.211 | 0.63 µM | 0.325 µM | 1.97 µM |  | 
2 | N#CN1CC[C@H](C(=O)Nc2ncc(-c3ccccc3)s2)C1 | 0.811 | 5.05 | 0.156 | 0.821 µM | 0.724 µM | 8.01 µM |  | 
3 | Cc1ccc2ccc3c4ccccc4ccc3c2c1 | 27.7 | > 100 | 30.9 | > 100 µM | 30.7 µM | > 100 µM |  | 
4 | O=C1c2cccc3c(N4CCOCC4)ccc(c23)C(=O)N1CCN1CCN(CCCCCN2CCN(CCN3C(=O)c4cccc5c(N6CCOCC6)ccc(c45)C3=O)CC2)CC1 | > 100 | > 100 | > 100 | > 100 µM | > 100 µM | > 100 µM |  | 
5 | O=C(CCCCN1CCN(CCCCC(=O)Nc2ccccc2C#C/C=C\C#Cc2ccccc2C(F)(F)F)CC1)Nc1ccccc1C#C/C=C\C#Cc1ccccc1C(F)(F)F | 11.2 | 25.3 | 8.94 | 17.4 µM | 9.64 µM | 20 µM |  | 
6 | OC1=CN=C(c2ccccc2)Oc2ccccc21 |  |  |  |  |  |  | > 100 | TGI (SNB-78 CNS): > 100 µM
7 | CCN(CC)CCCC(Nc1c2ccc(Cl)cc2nc2ccc(OC)cc12)c1ccc(Cl)cc1 (stereo unspecified) |  |  | 1.7 | 3.47 µM | 1.47 µM | 3.08 µM |  | 
8 | CO[C@H]1C(=O)[C@]2(C)[C@@H](OC)C[C@H]3OC[C@@]3(OC(C)=O)[C@H]2[C@H](OC(=O)c2ccccc2)[C@]2(O)C[C@H](OC(=O)[C@H](O)[C@@H](NC(=O)OC(C)(C)C)c3ccccc3)C(C)=C1C2(C)C |  |  | < 0.01 | 26.8 µM | 0.0269 µM | 1.24 µM |  | 
9 | COc1cc2c(c3c1c(=O)c1ccccc1n3C)C=C([N+](=O)[O-])C(C)(C)O2 |  | > 100 |  |  |  | > 100 µM |  | 
10 | COC(=O)C1CCC(C)CC1=O (stereo unspecified) |  |  |  |  |  |  | > 100 | TGI (XF 498 CNS): > 100 µM; TGI (SNB-78 CNS): > 100 µM
11 | OCC1OC(OC2(CO)OC(CO)C(O)C2O)C(O)C(O)C1O (stereo unspecified) |  |  | > 100 | > 100 µM | > 100 µM | > 100 µM |  | 
12 | CC(C)c1ccc(Cc2ccc(C(C)C)c(NC(=O)C(=O)Cc3cnc4ccccc4n3)c2C(C)C)c(C(C)C)c1NC(=O)C(=O)Cc1cnc2ccccc2n1 |  |  |  |  |  |  | > 100 | TGI (SNB-78 CNS): > 100 µM
13 | CCOC(=O)C(Cc1ccc(N=NN(C)C)cc1)NC(=O)CC1c2ccccc2-c2ccccc21 (stereo unspecified) |  |  |  |  |  |  | > 100 | 
14 | O=C(CI)NC(=O)NC(=O)NCc1ccccc1 | 20.9 | 72.4 | 2.8 | 8.17 µM | 4.62 µM | 30.3 µM |  | 
15 | CCC(Oc1ccc(OC)c2c1C(=O)CCC2)C(=O)O (stereo unspecified) |  |  |  |  |  |  | > 100 | TGI (XF 498 CNS): > 100 µM; TGI (SNB-78 CNS): > 100 µM
16 | Nc1nc(-c2ccccc2)c(CC(=O)O)s1 |  | > 100 |  | > 100 µM |  | > 100 µM |  | TGI (MDA-N): > 100 µM
17 | CCOC(=O)c1cc(C(=O)c2ccc(OC)c(OC)c2)n2c1ccc1ccc3cccnc3c12 | 3.04 | > 100 | 1.94 | > 100 µM | 0.948 µM | > 100 µM |  | 

Row | Structure (SMILES) | GI50 (HS 578T breast) [µM] | TGI (HS 578T breast) [µM] | GI50 (BT-549 breast) [µM] | TGI (BT-549 breast) | GI50 (NCI/ADR-RES ovarian) | TGI (NCI/ADR-RES ovarian) | TGI (LXFL 529 NSCLC) [µM] | further results
18 | O=c1[nH]c2ccccc2cc1-c1nnc(Cc2ccccc2)o1 | 13.3 | > 100 | 2.56 | 10.2 µM | 14.4 µM | 71.1 µM |  | 
19 | O=C(O)c1ccccc1NCn1nc(-c2ccccc2O)oc1=S | > 100 | > 100 | 73.8 | > 100 µM | 54 µM | > 100 µM |  | 
20 | Cn1cc(-c2ccc3ncc(-c4ccc(CC(=O)Nc5cc(C(C)(C)C)nn5C)cc4)cc3c2)cn1 | 0.798 | > 20 | 0.589 | 2.78 µM | 0.749 µM | 6.77 µM |  | 
21 | O=C(Nc1ccc(-n2cc(-c3ccncc3)c(-c3ccc(Cl)c(O)c3)n2)cc1)c1cc(C(F)(F)F)cc(C(F)(F)F)c1 | 5.32 | > 100 | 13.3 | 91.2 µM | 6.91 µM | > 100 µM |  | 
22 | CCN(CC)CCNc1n[n+]([O-])c2cc([N+](=O)[O-])ccc2[n+]1[O-] |  | 54.2 |  | 8.85 µM and 8.27 µM and 3.64 µM |  | 4.74 µM and 5.68 µM and 5.6 µM |  | TGI (MDA-N): 2.48 µM and 1.65 µM and 1.2 µM
23 | COc1cccc(-c2cc(=O)c3cc(N4CCN(C)CC4)ccc3[nH]2)c1 |  | 4.88 |  |  | 3.68 µM |  |  | GI50 (MDA-N): 0.349 µM; TGI (MDA-N): 0.923 µM and 4.25 µM
24 | C#Cc1cccc(NC(=O)/C=C\C(=O)O)c1 |  |  |  |  |  |  | > 100 | TGI (SNB-78 CNS): > 100 µM
25 | COc1ccc(N(CC(=O)O)N=O)cc1 |  | > 100 |  | > 100 µM |  | > 100 µM |  | TGI (MDA-N): > 100 µM
26 | Cc1ccccc1Nc1cc(O)c2c(=O)cc(-c3ccccc3)oc2c1 |  |  | 4.03 | > 100 µM | 1.28 µM | > 100 µM |  | 
27 | CC(C)(C)OC(=O)N[C@H]1CC(=O)c2ccccc2N(CC(=O)O)C1=O |  |  |  |  |  |  | > 100 | TGI (HOP-18 NSCLC): > 100 µM
28 | COS(=O)c1cc(Cl)cc(Cl)c1OC(=O)CSSCC(=O)Oc1c(Cl)cc(Cl)cc1S(=O)OC (stereo unspecified) |  |  |  |  |  |  | 47.6 | TGI (SNB-78 CNS): 76.2 µM; TGI (HOP-18 NSCLC): > 100 µM
29 | CCOC(=O)[C@@H](C)C[C@H](Cc1ccccc1)NC(=O)c1csc([C@@H](C[C@H](C(C)C)N(C)C(=O)CNC(=O)[C@H]2CCCCN2C)OC(C)=O)n1 | 1.5 | > 8.43 | 0.891 | > 14.3 µM | > 14.3 µM | > 14.3 µM |  | 
30 | CC(C)(C)C1=NO[C@H]2[C@@H](NC(=O)c3ccccc3)CC[C@@H]12 |  |  |  |  |  |  | > 100 | TGI (XF 498 CNS): > 100 µM; TGI (SNB-78 CNS): > 100 µM
31 | O=C1Nc2ccc(-c3cccnc3)cc2/C1=C/c1cc(Br)c(O)c(Br)c1 | 5.67 | > 22 | 6.05 | > 18.9 µM | > 20 µM | > 25 µM |  | 
32 | N#Cc1c(-c2ccccc2)c(-c2ccccc2)cc2c(=O)c3ccc(Cl)cc3[nH]c12 |  |  |  |  |  |  | > 100 | TGI (XF 498 CNS): > 100 µM; TGI (HOP-18 NSCLC): > 100 µM
33 | Cc1nc2ccncc2[nH]1 |  |  |  |  |  |  | > 100 | TGI (XF 498 CNS): > 100 µM
34 | COc1ccc([C@@]23Oc4cc(OC)cc(OC)c4[C@]2(O)[C@H](O)[C@H](C(=O)N(C)C)[C@H]3c2ccccc2)cc1 | 0.0225 |  |  |  | 0.0077 µM and 0.0566 µM | 0.442 µM and 0.329 µM and 1.55 µM |  | 
